From patent US20050003509A1, “Method for modulating C.albicans” (priority 2003, published 2005)

Tests used:
[1] = tested on: C.albicans; test: induction of morphological transition (hyphae) in buffer; type: cell-based; settings: 10 mM proline or 2.5 mM Glc-Nac in 10 mM MES pH 6.4, 12 hours, 37° C.
Description: To test this, stains were grown in YPD, as described supra, washed, and were resuspended in buffer at an OD600 of 1, or buffer (10 MM MES, pH 6.4) containing either 10 mM proline, or 2.5 mM Glc-Nac. The suspensions were incubated for 12 hours, at 37° C., after which the suspensions were examined microscopically.

[2] = tested on: C.albicans; test: growth on YNB medium with lysine as sole nitrogen source; type: cell-based; settings: 0, 0.1, 1 and 3 mM lysine
Description: Cells were then grown on YNB medium, containing varying concentrations of lysine (0, 0.1, 1 and 3 mM), as sole nitrogen source. A striking gene dosage effect was observed. As expected, none of the strains were able to grow in the absence of lysine, whereas they grew weakly when 0.1 mM lysine was present, showing the C.albicans can metabolize lysine. […] The heterozygous strains have balanced the opposing activities.

[3] = tested on: S.cervesiae strain FGY145; test: growth of transformed shr3Δ6 S.cervesiae strain FGY145 with toxic amino acids; type: cell-based, S.cerevisiae; settings: 30° C., six days
Description: Standard culture conditions and media for S.cervesiae and C.albicans have been described by Sherman, in Guthrie, ed. Guide to Yeast Genetics And Molecular Biology (Academic Press, 1991), pp. 3-21, incorporated by reference. To elaborate, Ura^− strains of C.albicans were grown in standard media, supplemented with 25 μg/ml of uridine. Tests on S.cerevisiae were carried out in SD medium supplemented with histidine, as well as various toxic amino acid analogs, i.e., L-canaranine (1 μg/ml), L-azetidine-2-carboxylate (500 μg/ml), B-chloro-D, L-alanine (100 μg/ml), p-fluoro-D, L-phenylalanine (400 μg/ml), D, L-ethionine (300 μg/ml), and 2-aminoethyl-L-cysteine (225 μg/ml). Ljungdahl, et al., Cell, 71:463-478 (1992), was followed to produce SPD and SPD containing 30 mM histidine.
Cell suspension of shr3Δ6 S.cervesiae strain FGY145 described by Gilstring, et al., Mol. Cell Biol., 10:3549-3565 (1999), were transformed with either control plasma pRS316, pPL210, which encodes SHR3 and is described by Ljungdahl, et al., supra, or pPM20, which encodes CSH3, and is described supra. The transformants were spotted on the described SD media, and grown in the presence of the toxic amino acids described supra. Suspensions of the cells were also grown on SPD, and SPD containing 30 mM histidine. […]

## CC(=O)N[C@H]1C(O)O[C@H](CO)[C@@H](O)[C@@H]1O (stereo partly drawn) [Glc-Nac, N-acetyl glucosamine]
[1]; (+/+) wild type
  hyphal development: extensive hyphal development
[1]; (−/−) cells
  hyphal development: extensive hyphal development

## NCCCC[C@H](N)C(=O)O [lysine]
[2]; CSH3/CSH3 (+/+) strain
  growth with increasing lysine concentration: decrease at concentrations above 1 mM
[2]; heterozygous strains
  growth with increasing lysine concentration: robust growth at concentrations greater than 1 mM
[2]; homozygous null mutant
  growth with increasing lysine concentration: improved noticeably

## O=C(O)[C@@H]1CCCN1 [proline]
[1]; (+/+) wild type
  hyphal development: developed hyphae readily
[1]; (−/−) cells
  hyphal development: only a few cells with short germ tubules

## N[C@@H](Cc1c[nH]cn1)C(=O)O [histidine]
[3]; transformants carrying SHR3 (CSH3 transformants indistinguishable)
  growth sensitivity: sensitive
[3]; transformants with control plasmid pRS316
  growth sensitivity: resistant
